Assay results taken from patent publication US20240398828A1, “HETERO-ATOM CONTAINING COMPOUNDS AND USES THEREOF” (Kumquat Biosciences Inc., priority 2021, published 2024).

Experiments:
PTPN2 (i.e., TC-PTP) = target: T1, PTPN2 (i.e., TC-PTP) (Homo sapiens, UniProt P17706); test: Phosphatase activity assay (DiFMUP substrate), PTPN2; type: biochemical; settings: compounds binned ≤1 uM or >1 uM
T1 sequence (P17706 1-415): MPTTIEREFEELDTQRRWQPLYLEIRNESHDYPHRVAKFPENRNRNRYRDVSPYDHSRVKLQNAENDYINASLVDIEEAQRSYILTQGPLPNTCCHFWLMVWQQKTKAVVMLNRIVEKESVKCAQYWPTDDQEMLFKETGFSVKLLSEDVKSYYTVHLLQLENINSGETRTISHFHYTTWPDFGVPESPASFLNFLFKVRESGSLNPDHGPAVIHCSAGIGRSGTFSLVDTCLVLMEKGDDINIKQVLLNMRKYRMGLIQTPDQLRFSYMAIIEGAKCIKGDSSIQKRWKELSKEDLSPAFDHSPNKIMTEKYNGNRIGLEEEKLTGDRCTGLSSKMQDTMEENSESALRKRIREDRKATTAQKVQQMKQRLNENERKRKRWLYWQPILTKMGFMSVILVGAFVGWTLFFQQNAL
Method in brief: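 First, serially diluted inhibitor is mixed about 2 minutes with enzyme in pH 7.5 HEPES/NaCl/EDTA/DTT/Tween-20 buffer. Next, DiFMUP is added at the enzyme's Km, approximately 45 μM for PTPN2. Finally, DiFMU appearance is read continuously at room temperature and rates are fitted for IC50.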

PTPN1 (i.e., PTP1B) = target: T2, PTPN1 (i.e., PTP1B) (Homo sapiens, UniProt P18031); test: Phosphatase activity assay (DiFMUP substrate), PTP1B; type: biochemical; settings: compounds binned ≤1 uM or >1 uM
T2 sequence (P18031 1-435): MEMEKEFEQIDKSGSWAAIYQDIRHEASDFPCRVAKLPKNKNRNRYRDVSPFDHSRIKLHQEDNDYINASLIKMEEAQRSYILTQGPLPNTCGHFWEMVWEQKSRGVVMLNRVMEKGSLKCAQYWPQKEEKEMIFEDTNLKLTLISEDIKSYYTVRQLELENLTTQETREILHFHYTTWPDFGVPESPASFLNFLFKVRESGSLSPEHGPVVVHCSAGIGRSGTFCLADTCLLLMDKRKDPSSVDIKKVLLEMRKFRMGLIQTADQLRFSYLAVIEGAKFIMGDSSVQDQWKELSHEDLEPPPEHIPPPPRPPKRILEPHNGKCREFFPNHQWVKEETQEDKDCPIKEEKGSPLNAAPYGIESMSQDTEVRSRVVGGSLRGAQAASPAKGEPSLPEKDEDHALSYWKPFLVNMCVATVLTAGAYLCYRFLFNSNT
Method in brief: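 RT, HEPES pH 7.5 buffer with DTT/Tween-20. 10-point inhibitor series premixed ~2 min with enzyme (PTPN2 0.025 ng/ul). Start with DiFMUP at enzyme Km (~45 μM for PTPN2). Read DiFMU ex360/em450 continuously 15–30 min; initial rate vs concentration, 4-parameter fit → IC50.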

Row | SMILES | IC50 (PTPN2 (i.e., TC-PTP)) [nM] | IC50 (PTPN1 (i.e., PTP1B)) [nM]
1 | CC(C)N1CC=C(c2ccc(O)c(N3CC(=O)NS3(=O)=O)c2F)C1 [Compound 461, 5-(2-fluoro-6-hydroxy-3-(1-isopropyl-2,5-dihydro-1H-pyrrol-3-yl)phenyl)-1,2,5-thiadiazolidin-3-one 1,1-dioxide] | ≤ 1000 | ≤ 1000
2 | CC(O)c1cc(-c2ccc(O)c(N3CC(=O)NS3(=O)=O)c2F)[nH]n1 (stereo not drawn) [Compound 462, 5-(2-fluoro-6-hydroxy-3-(3-(1-hydroxyethyl)-1H-pyrazol-5-yl)phenyl)-1,2,5-thiadiazolidin-3-one 1,1-dioxide] | ≤ 1000 | ≤ 1000
3 | Cn1nc(-c2ccc(O)c(N3CC(=O)NS3(=O)=O)c2F)cc1CCC1CC1 [Compound 463, 5-(3-(5-(2-cyclopropylethyl)-1-methyl-1H-pyrazol-3-yl)-2-fluoro-6-hydroxyphenyl)-1,2,5-thiadiazolidin-3-one 1,1-dioxide] | ≤ 1000 | ≤ 1000
4 | O=C1CN(c2c(O)ccc(-c3cc(CCCC4CC4)n[nH]3)c2F)S(=O)(=O)N1 [Compound 464, 5-(3-(3-(3-cyclopropylpropyl)-1H-pyrazol-5-yl)-2-fluoro-6-hydroxyphenyl)-1,2,5-thiadiazolidin-3-one 1,1-dioxide] | ≤ 1000 | ≤ 1000
5 | O=C1CN(c2c(O)ccc(-c3cnn(C4CC5CCC(C4)O5)c3)c2F)S(=O)(=O)N1 (stereo not drawn) [Compound 465, 5-(3-(1-(8-oxabicyclo[3.2.1]octan-3-yl)-1H-pyrazol-4-yl)-2-fluoro-6-hydroxyphenyl)-1,2,5-thiadiazolidin-3-one 1,1-dioxide] | ≤ 1000 | ≤ 1000
6 | O=C1CN(c2c(O)ccc(-c3cc(N4CC5(COC5)C4)n[nH]3)c2F)S(=O)(=O)N1 [Compound 466, 5-(3-(3-(2-oxa-6-azaspiro[3.3]heptan-6-yl)-1H-pyrazol-5-yl)-2-fluoro-6-hydroxyphenyl)-1,2,5-thiadiazolidin-3-one 1,1-dioxide] | ≤ 1000 | ≤ 1000
7 | CC(C)n1cc(-c2ccc(O)c(N3CC(=O)NS3(=O)=O)c2F)c(F)n1 [Compound 467, 5-(2-fluoro-3-(3-fluoro-1-isopropyl-1H-pyrazol-4-yl)-6-hydroxyphenyl)-1,2,5-thiadiazolidin-3-one 1,1-dioxide] | ≤ 1000 | ≤ 1000
8 | Cn1nc(-c2ccc(O)c(N3CC(=O)NS3(=O)=O)c2F)cc1C1CCCN1 (stereo not drawn) [Compound 468, 5-(2-fluoro-6-hydroxy-3-(1-methyl-5-(pyrrolidin-2-yl)-1H-pyrazol-3-yl)phenyl)-1,2,5-thiadiazolidin-3-one 1,1-dioxide] | > 1000 | ≤ 1000
9 | O=C1CN(c2c(O)ccc(-c3cn(C4CCCCC4)nc3F)c2F)S(=O)(=O)N1 [Compound 469, 5-(3-(1-cyclohexyl-3-fluoro-1H-pyrazol-4-yl)-2-fluoro-6-hydroxyphenyl)-1,2,5-thiadiazolidin-3-one 1,1-dioxide] | ≤ 1000 | ≤ 1000
10 | CC1CC=C(c2ccc(O)c(N3CC(=O)NS3(=O)=O)c2F)CN1 (stereo not drawn) [Compound 470, 5-(2-fluoro-6-hydroxy-3-(6-methyl-1,2,5,6-tetrahydropyridin-3-yl)phenyl)-1,2,5-thiadiazolidin-3-one 1,1-dioxide] | ≤ 1000 | ≤ 1000
11 | C=CCCC1C=C(c2ccc(O)c(N3CC(=O)NS3(=O)=O)c2F)CN1 (stereo not drawn) [Compound 471, 5-(3-(5-(but-3-en-1-yl)-2,5-dihydro-1H-pyrrol-3-yl)-2-fluoro-6-hydroxyphenyl)-1,2,5-thiadiazolidin-3-one 1,1-dioxide] | ≤ 1000 | ≤ 1000
12 | Cn1cc(-c2ccc(O)c(N3CC(=O)NS3(=O)=O)c2F)nc1C1CC1(F)F (stereo not drawn) [Compound 472, 5-(3-(2-(2,2-difluorocyclopropyl)-1-methyl-1H-imidazol-4-yl)-2-fluoro-6-hydroxyphenyl)-1,2,5-thiadiazolidin-3-one 1,1-dioxide] | > 1000 | ≤ 1000
